In this experiment the target is Neuronal acetylcholine receptor; alpha4/beta2 (Rattus norvegicus, UniProt P09483+P12390). As to the kind of experiment: Displacement of [3H]epibatidine from rat alpha4beta2 nAChR. It is filed as protein-complex assay.
Neuronal acetylcholine receptor; alpha4/beta2, sequence (P09483 whole entry): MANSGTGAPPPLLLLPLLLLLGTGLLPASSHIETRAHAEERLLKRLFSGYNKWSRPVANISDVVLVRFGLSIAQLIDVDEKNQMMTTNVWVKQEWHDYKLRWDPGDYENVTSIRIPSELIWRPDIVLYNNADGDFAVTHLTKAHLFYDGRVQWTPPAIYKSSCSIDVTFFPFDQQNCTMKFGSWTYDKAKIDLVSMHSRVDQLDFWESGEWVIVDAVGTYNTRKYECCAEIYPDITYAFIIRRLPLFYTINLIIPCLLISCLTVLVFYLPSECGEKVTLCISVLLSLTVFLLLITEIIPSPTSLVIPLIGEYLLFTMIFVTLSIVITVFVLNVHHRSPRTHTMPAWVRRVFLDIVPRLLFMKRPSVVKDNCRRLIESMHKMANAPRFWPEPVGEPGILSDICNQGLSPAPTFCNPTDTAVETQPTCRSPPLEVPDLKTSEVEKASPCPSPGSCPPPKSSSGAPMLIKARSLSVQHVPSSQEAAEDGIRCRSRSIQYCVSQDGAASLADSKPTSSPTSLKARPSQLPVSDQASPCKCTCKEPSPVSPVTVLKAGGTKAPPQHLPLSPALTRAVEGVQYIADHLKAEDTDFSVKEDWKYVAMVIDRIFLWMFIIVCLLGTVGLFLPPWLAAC
Neuronal acetylcholine receptor; alpha4/beta2, sequence (P12390 whole entry): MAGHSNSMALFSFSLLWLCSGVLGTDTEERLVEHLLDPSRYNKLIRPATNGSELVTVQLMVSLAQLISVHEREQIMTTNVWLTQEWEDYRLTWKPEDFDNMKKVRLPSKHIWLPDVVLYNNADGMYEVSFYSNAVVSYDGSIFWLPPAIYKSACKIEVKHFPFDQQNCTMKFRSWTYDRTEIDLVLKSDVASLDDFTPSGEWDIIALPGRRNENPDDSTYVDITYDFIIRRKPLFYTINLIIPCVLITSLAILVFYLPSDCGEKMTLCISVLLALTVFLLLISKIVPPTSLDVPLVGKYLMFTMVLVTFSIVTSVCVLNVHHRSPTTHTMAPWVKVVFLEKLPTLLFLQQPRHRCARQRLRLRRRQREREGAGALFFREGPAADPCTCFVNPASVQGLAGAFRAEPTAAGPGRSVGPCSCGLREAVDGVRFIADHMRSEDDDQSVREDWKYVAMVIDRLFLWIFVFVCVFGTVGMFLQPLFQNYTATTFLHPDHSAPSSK

With `CN1C[C@@H]2C[C@H](C1)c1ccc(Br)c(=O)n1C2`, the IC50 was 102 nM.
The compound `O=c1c(Br)cc(Br)c2n1C[C@@H]1CNC[C@H]2C1` had an IC50 of 372 nM.
`O=c1ccc(Br)c2n1C[C@@H]1CNC[C@H]2C1` had an IC50 of 457 nM. The IC50 values of the last two compounds are within 1.5-fold of each other.
Take `CN1C[C@@H]2C[C@H](C1)c1cccc(=O)n1C2`: the IC50 was 112 nM.
`O=c1c(I)ccc2n1C[C@@H]1CNC[C@H]2C1` had an IC50 of 0.245 nM.
`O=c1c(Br)ccc2n1C[C@@H]1CNC[C@H]2C1` had an IC50 of 0.309 nM.
Take `O=c1cccc2n1C[C@@H]1CNC[C@H]2C1` [CYTISINICLINE]: the concentration for half-maximal inhibition (IC50) was 69.2 nM.

By IC50 is commonly meant the concentration at which inhibition is half-maximal.
